Experiments:
[1] = system: OPM-2; assay: Cell viability assay (OPM-2 10 FBS, CellTiter-Glo); type: cell-based, human; conditions: OPM-2 cells
Experimental: Cell Viability Assay (OPM-2 10 FBS)
Cells were seeded into 384-well plates at 3000 cells/well density in complete growth medium containing 10% FBS, and incubated for 16 h with serially diluted test compounds in a 37° C. incubator with 5% CO2. Cell viability was tested using CellTiter-Glo® assay (Promega, Madison, Wis.) according to the manufacturer recommendations. Luminescence was determined using an EnVision® Multilabel plate reader 25 min after the addition of detection reagent. IC50 values were then calculated with Xlfit using a logistical 4-parameter fit model in GraphPad Prism (GraphPad Software, San Diego, Calif.) or in Genedata Screener® (Genedata, Basel, Switzerland).

[2] = target: T1, Mcl-1/Bak protein-protein interactions (Homo sapiens, UniProt Q07820); assay: Cell-based split luciferase complementation assay; conditions: HEK 293 M cells, serum-free, 4 h
T1 construct: expressed in transfected cells; host or cells: HEK 293 M cells, transient transfection
T1 sequence (Q07820 whole entry): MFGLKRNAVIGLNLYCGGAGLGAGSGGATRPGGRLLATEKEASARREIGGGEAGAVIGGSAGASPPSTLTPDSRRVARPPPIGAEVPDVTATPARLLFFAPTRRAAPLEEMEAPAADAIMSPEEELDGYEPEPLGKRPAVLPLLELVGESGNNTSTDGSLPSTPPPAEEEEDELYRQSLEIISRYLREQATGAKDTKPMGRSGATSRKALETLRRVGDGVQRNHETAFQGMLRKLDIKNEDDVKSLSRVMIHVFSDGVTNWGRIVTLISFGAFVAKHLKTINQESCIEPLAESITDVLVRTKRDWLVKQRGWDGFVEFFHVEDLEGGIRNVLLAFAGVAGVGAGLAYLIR
Experimental: Cell-Based Assay (Split Luciferase)
A split luciferase complementation assay was developed to determine the inhibition of Mcl-1/Bak protein-protein interactions in cells. […] Transient transfection was performed using Lipofectamine® LTX/Plus™ reagent (Life Technologies, Grand Island, N.Y.). 24 h after transfection, cells were collected using non-enzyme based cell dissociation buffer StemPro® Accutase® (Life Technologies), and resuspended in serum-free Opti-MEM® (Life Technologies). Cells were then seeded into assay plates with serially diluted test compounds in 0.3% DMSO at density of a 5000 cells/well. Cells were then incubated for 4 h at 37° C. in a cell culture incubator supplement with 5% CO2. Test plates were equilibrated to room temperate for 30 min before addition of 30 μL Steady-Glo® Luciferase assay reagent (Promega, Madison, Wis.) into each test well. Luminescence was determined using an EnVision® Multilabel plate reader 25 min after the addition of detection reagent. IC50 values were then calculated with Xlfit using a logistical 4-parameter fit model in GraphPad Prism (GraphPad Software, San Diego, Calif.) or in Genedata Screener® (Genedata, Basel, Switzerland).

[3] = target: T2, recombinant human Mcl-1 (Homo sapiens, UniProt Q07820); assay: Cell free Mcl-1:Bim affinity assay (Mcl-1 HTRF, TR-FRET); type: binding; conditions: inhibition of Mcl-1/Bim interaction
T2 construct: C-terminally 6×His tagged Mcl-1 containing residues 171-327; made in house
T2 sequence (Q07820 171-327): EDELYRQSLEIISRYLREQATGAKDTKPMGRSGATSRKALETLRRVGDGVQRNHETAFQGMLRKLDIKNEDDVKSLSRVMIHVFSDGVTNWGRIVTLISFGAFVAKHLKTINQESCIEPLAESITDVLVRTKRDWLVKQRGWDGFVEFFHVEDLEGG
Experimental: Cell Free Mcl-1:Bim Affinity Assay (Mcl-1 HTRF)
The inhibition of the Mcl-1/Bim interaction was measured using a time-resolved fluorescence resonance energy transfer (TR-FRET) assay. […] A biotinylated peptide derived from human Bim (residues 51-76) was purchased from CPC Scientific (San Jose, Calif.). The TR-FRET assay was conducted in a 384-well white OptiPlate™ (PerkinElmer, Waltham, Mass.) in a total volume of 40 μL. […] The reaction plates were further incubated overnight and then were read on an Envision® multimode reader (PerkinElmer). […] The IC50 values of test compounds were determined from duplicate data by analyzing competition curves using a four-parameter sigmoidal model in GraphPad Prism (GraphPad Software, San Diego, Calif.) or in Genedata Screener® (Genedata, Basel, Switzerland).

Q: With CCC[C@@H]1[C@@H](C)C/C=C/[C@H](O)[C@@H]2CC[C@H]2CN2C[C@@]3(CCCc4cc(Cl)ccc43)COc3ccc(cc32)C(=O)NS1(=O)=O [Example 70, (1S,3′R,6′R,7′S,8′E,11′S,12′R)-6-Chloro-7′-Hydroxy-11′-Methyl-12′-Propyl-3,4-Dihydro-2H,15′H-Spiro[Naphthalene-1,22′-[20]Oxa[13]Thia[1,14] Diazatetracyclo [14.7.2.0^3,6.0^19,24]Pentacosa [8,16,18,24]Tetraen]-15′-One 13′,13′-Dioxide] as the compound, how does the IC50 ([1]; Homo sapiens, OPM-2, 16 h) read?
A: 238 nM

Q: What about the IC50 [2] of the same compound?
A: 34.7 nM

Q: What about the IC50 [3] of the same compound?
A: 0.638 nM

Q: Which IC50 ([1]; Homo sapiens, OPM-2, 16 h) does the source give for CC[C@H]1C/C=C/[C@H](O)[C@@H]2CC[C@H]2CN2C[C@@]3(CCCc4cc(Cl)ccc43)COc3ccc(cc32)C(=O)NS(=O)(=O)C1 (single isomer, unassigned) [Example 34] here?
A: 253 nM

Q: What about the IC50 [2] of the same compound?
A: 37.7 nM

Q: And the IC50 [3]?
A: 0.437 nM

Q: CO[C@H]1CCC[C@H](C)[C@@H](C)S(=O)(=O)NC(=O)c2ccc3c(c2)N(C[C@@H]2CC[C@H]21)C[C@@]1(CCCc2cc(Cl)ccc21)CO3 [Example 7, (1S,3′R,6′R,7′S,11′S,12′R)-6-Chloro-7′-Methoxy-11′,12′-Dimethyl-3,4-Dihydro-2H,15′H-Spiro[Naphthalene-1,22′-[20]Oxa[13]Thia[1,14]Diazatetracyclo[14.7.2.0^3,6.0^19,24]Pentacos A[16,18,24]Trien]-15′-One 13′,13′-Dioxide] was tested. Which IC50 ([1]; Homo sapiens, OPM-2, 16 h) did it give?
A: 1060 nM

Q: What about the IC50 [2] of the same compound?
A: 147 nM

Q: What about the IC50 [3] of the same compound?
A: 1.18 nM

Q: Which results are given for COCCO[C@H]1/C=C/CC[C@@H](C)S(=O)(=O)NC(=O)c2ccc3c(c2)N(C[C@@H]2CC[C@H]21)C[C@@]1(CCCc2cc(Cl)ccc21)CO3 [Example 76, (1S,3′R,6′R,7′S,8′E,12′R)-6-Chloro-7′-(2-Methoxyethoxy)-12′-Methyl-3,4-Dihydro-2H,15′H-Spiro[Naphthalene-1,22′-[20]Oxa[13]Thia[1,14]Diazatetracyclo[14.7.2.0^3,6.0^19,24]Pentacos A[8,16,18,24]Tetraen]-15′-One 13′,13′-Dioxide]?
A: IC50 ([1]; Homo sapiens, OPM-2, 16 h): 668 nM; IC50 [2]: 77.3 nM; IC50 [3]: 1.12 nM

Q: Which IC50 ([1]; 16 h) does the source give for CCC[C@@H]1[C@@H](C)C/C=C/[C@H](O)[C@@H]2CC[C@H]2CN2C[C@@]3(CCCc4cc(Cl)ccc43)COc3ccc(cc32)C(=O)NS1(=O)=O (single isomer, unassigned) [Example 69] here?
A: 2710 nM

Q: And the IC50 [2]?
A: 425 nM

Q: And the IC50 [3]?
A: 8.66 nM

Q: How did the IC50 ([1]; Homo sapiens, OPM-2, 16 h) turn out when CC[C@@H]1CC/C=C/[C@H](OCCOC)[C@@H]2CC[C@H]2CN2C[C@@]3(CCCc4cc(Cl)ccc43)COc3ccc(cc32)C(=O)NS1(=O)=O [Example 75, (1S,3′R,6′R,7′S,8′E,12′R)-6-Chloro-12′-Ethyl-7′-(2-Methoxyethoxy)-3,4-Dihydro-2H,15′H-Spiro[Naphthalene-1,22′-[20]Oxa[13]Thia[1,14]Diazatetracyclo[14.7.2.0^3,6.0^19,24]Pentacosa[8,16,18,24]Tetraen]-15′-One 13′,13′-Dioxide] was run?
A: 2560 nM

Q: And the IC50 [2]?
A: 159 nM

Q: And the IC50 [3]?
A: 2.83 nM

Q: C[C@H]1C/C=C/[C@H](O)[C@@H]2CC[C@H]2CN2C[C@@]3(CCCc4cc(Cl)ccc43)COc3ccc(cc32)C(=O)NS(=O)(=O)[C@@H]1CC1CC1 (single isomer, unassigned) [Example 58] was tested. Which IC50 ([1]; 16 h) did it give?
A: 496 nM

Q: What about the IC50 [2] of the same compound?
A: 48.2 nM

Q: And the IC50 [3]?
A: 0.917 nM

Q: Which results are given for C[C@H]1C/C=C/[C@H](O)[C@@H]2CC[C@H]2CN2C[C@@]3(CCCc4cc(Cl)ccc43)COc3ccc(cc32)C(=O)NS(=O)(=O)[C@@H]1C1CCC1 (single isomer, unassigned) [Example 57]?
A: IC50 ([1]; 16 h): 2400 nM; IC50 [2]: 375 nM; IC50 [3]: 2.15 nM

Q: For CO[C@H]1/C=C/C[C@H](C)CS(=O)(=O)NC(=O)c2ccc3c(c2)N(C[C@@H]2CC[C@H]21)C[C@@]1(CCCc2cc(Cl)ccc21)CO3 (single isomer, unassigned) [Example 31], which IC50 ([1]; 16 h) is on record?
A: 3560 nM

Q: What about the IC50 [2] of the same compound?
A: 543 nM

Q: What about the IC50 [3] of the same compound?
A: 5.8 nM

Q: What does the source list for CC[C@@H]1CC/C=C/[C@H](OC)[C@@H]2CC[C@H]2CN2C[C@@]3(CCCc4cc(Cl)ccc43)COc3ccc(cc32)C(=O)NS1(=O)=O [Example 20, (1S,3′R,6′R,7′S,8′E,12′R)-6-Chloro-12′-Ethyl-7′-Methoxy-3,4-Dihydro-2H,15′H-Spiro[Naphthalene-1,22′-[20]Oxa[13]Thia[1,14]Diazatetracyclo[14.7.2.0^3,6.0^19,24]Pentacos A[8,16,18,24]Tetraen]-15′-One 13′,13′-Dioxide]?
A: IC50 ([1]; Homo sapiens, OPM-2, 16 h): 390 nM; IC50 [2]: 50.4 nM; IC50 [3]: 0.647 nM

Q: What does the source list for CC(C)[C@@H]1[C@H](C)C/C=C/[C@H](O)[C@@H]2CC[C@H]2CN2C[C@@]3(CCCc4cc(Cl)ccc43)COc3ccc(cc32)C(=O)NS1(=O)=O (single isomer, unassigned) [Example 51]?
A: IC50 ([1]; 16 h): 14400 nM; IC50 [2]: 792 nM; IC50 [3]: 24.3 nM

Q: With C[C@@H]1C/C=C/[C@H](O)[C@@H]2CC[C@H]2CN2C[C@@]3(CCCc4cc(Cl)ccc43)COc3ccc(cc32)C(=O)NS(=O)(=O)[C@H]1CC1CCC1 (single isomer, unassigned) [Example 64] as the compound, how does the IC50 ([1]; 16 h) read?
A: 8630 nM

Q: And the IC50 [2]?
A: 318 nM

Q: What about the IC50 [3] of the same compound?
A: 13.6 nM

Q: How did the IC50 ([1]; 16 h) turn out when CCC[C@@H]1[C@@H](C)C/C=C/[C@H](O)[C@@H]2CC[C@H]2CN2C[C@@]3(CCCc4cc(Cl)ccc43)COc3ccc(cc32)C(=O)NS1(=O)=O (single isomer, unassigned) [Example 68] was run?
A: 179 nM

Q: What about the IC50 [2] of the same compound?
A: 16.4 nM

Q: And the IC50 [3]?
A: 0.501 nM

Q: C[C@H]1C/C=C/[C@H](O)[C@@H]2CC[C@H]2CN2C[C@@]3(CCCc4cc(Cl)ccc43)COc3ccc(cc32)C(=O)NS(=O)(=O)[C@@H]1C1CCC1 (single isomer, unassigned) [Example 56] was tested. Which IC50 ([1]; 16 h) did it give?
A: 208 nM

Q: What about the IC50 [2] of the same compound?
A: 31.9 nM

Q: What about the IC50 [3] of the same compound?
A: 0.289 nM

Q: What does the source list for CC1(C)CC/C=C/[C@H](O)[C@@H]2CC[C@H]2CN2C[C@@]3(CCCc4cc(Cl)ccc43)COc3ccc(cc32)C(=O)NS1(=O)=O (single isomer, unassigned) [Example 40]?
A: IC50 ([1]; Homo sapiens, OPM-2, 16 h): 7300 nM; IC50 [2]: 297 nM; IC50 [3]: 7.68 nM

Q: How did the IC50 ([1]; Homo sapiens, OPM-2, 16 h) turn out when CO[C@H]1/C=C/C[C@H](C)[C@@H](C2CC2)S(=O)(=O)NC(=O)c2ccc3c(c2)N(C[C@@H]2CC[C@H]21)C[C@@]1(CCCc2cc(Cl)ccc21)CO3 [Example 48, (1S,3′R,6′R,7′S,8′E,11′S,12′S)-6-Chloro-12′-Cyclopropyl-7′-Methoxy-11′-Methyl-3,4-Dihydro-2H,15′H-Spiro [Naphthalene-1,22′-[20]Oxa[13]Thia[1,14]Diazatetracyclo[14.7.2.0^3,6.0^19,24]Pentacosa[8,16,18,24]Tetraen]-15′-One 13′,13′-Dioxide] was run?
A: 5580 nM

Q: What about the IC50 [2] of the same compound?
A: 477 nM

Q: What about the IC50 [3] of the same compound?
A: 3.89 nM

Q: Which results are given for CC[C@@H]1[C@@H](C)C/C=C/[C@H](O)[C@@H]2CC[C@H]2CN2C[C@@]3(CCCc4cc(Cl)ccc43)COc3ccc(cc32)C(=O)NS1(=O)=O (single isomer, unassigned) [Example 24]?
A: IC50 ([1]; Homo sapiens, OPM-2, 16 h): 125 nM; IC50 [2]: 20.1 nM; IC50 [3]: 0.153 nM

Q: With CC(C)C[C@@H]1[C@@H](C)C/C=C/[C@H](O)[C@@H]2CC[C@H]2CN2C[C@@]3(CCCc4cc(Cl)ccc43)COc3ccc(cc32)C(=O)NS1(=O)=O (single isomer, unassigned) [Example 65] as the compound, how does the IC50 ([1]; 16 h) read?
A: 3280 nM

Q: What about the IC50 [2] of the same compound?
A: 376 nM

Q: What about the IC50 [3] of the same compound?
A: 5.3 nM

Q: C[C@H]1C/C=C/[C@H](O)[C@@H]2CC[C@H]2CN2C[C@@]3(CCCc4cc(Cl)ccc43)COc3ccc(cc32)C(=O)NS(=O)(=O)[C@@H]1C1CC1 (single isomer, unassigned) [Example 47] was tested. Which IC50 ([1]; 16 h) did it give?
A: 284 nM

Q: What about the IC50 [2] of the same compound?
A: 60 nM

Q: And the IC50 [3]?
A: 0.248 nM

Q: O=C1NS(=O)(=O)CCC/C=C/[C@H](O)[C@@H]2CC[C@H]2CN2C[C@@]3(CCCc4cc(Cl)ccc43)COc3ccc1cc32 [Example 8, (1S,3′R,6′R,7′S,8′E)-6-Chloro-7′-Hydroxy-3,4-Dihydro-2H,15′H-Spiro[Naphthalene-1,22′-[20]Oxa[13]Thia[1,14]Diazatetracyclo[14.7.2.0^3,6.0^19,24]Pentacos A[8,16,18,24]Tetraen]-15′-One 13′,13′-Dioxide] was tested. Which IC50 ([1]; Homo sapiens, 16 h) did it give?
A: 1680 nM

Q: What about the IC50 [2] of the same compound?
A: 211 nM

Q: What about the IC50 [3] of the same compound?
A: 0.977 nM

Q: Which results are given for COCCO[C@H]1/C=C/C[C@H](C)CS(=O)(=O)NC(=O)c2ccc3c(c2)N(C[C@@H]2CC[C@H]21)C[C@@]1(CCCc2cc(Cl)ccc21)CO3 (single isomer, unassigned) [Example 78]?
A: IC50 ([1]; 16 h): 2740 nM; IC50 [2]: 420 nM; IC50 [3]: 2.67 nM
